Measurements taken from patent publication US7504481B2, “TRP channel family member, LTRPC3 polypeptides” (Bristol-Meyers Squibb Company, priority 2001, dated 2009).

Experiments:
HEK 293 cells = assay: Depletion of intracellular Ca2+ stores in LTRPC3-HA- and vector-transfected HEK 293 cells (FLIPR); format: cell-based; details: no external Ca^2+
LTRPC3 [1] = biological target: T1, LTRPC3 (Homo sapiens, UniProt Q9HCF6, R1695Q); assay: FLIPR Fluo-4 Ca2+ entry in LTRPC3-transfected HEK 293 cells; format: cell-based; details: for effect on LTRPC3 mediated Ca^2+ currents / entry (in words): 100 μM for 10 min, 1 mM Ca^2+ solution, then 10 mM Ca^2+; for block of LTRPC3 Ca^2+ currents: pre-treatment with 100 μM, 1 mM Ca^2+ present, stimulated by adding 10 mM Ca^2+ (FIG. 19C)
T1 construct: the complete open reading frame of LTRPC3 with a C-terminal HA tag was transiently transfected into HEK 293 cells; expressed in transfected cells; host or cells: HEK 293 cells, transient transfection with pcDNA3.1/Hygro-LTRPC3-HA
Procedure: […] (A), or 50 μM carbachol (B) was first added to LTRPC3 expressing HEK 293 cells in the absence of external Ca^2+. After 9 minutes, 2 mM Ca^2+ solution was added to the cell medium at the indicated times.Currents for vector transfected HEK 293 cells, and LTRPC3 expressing HEK 293 cells are labeled accordingly. […] Cells loaded with Fluo-4 were incubated in 1 mM Ca^2+ solution and treated with 100 μM of La^3+ (“w/La^3+”), Gd^3+ (“w/Gd^3+”) or without blockers (“w/o blocker”) for 10 min prior to the addition of 10 mM Ca^2+ to the cell medium as indicated. Curves represent averages of three independent experiments, each involving at least 8 wells per condition. Physiometric methods were performed as described in Example 8 herein.
(§1) Panels A, C and E show results obtained for vector-transfected cells, while Panels B, D and F show results obtained for TRPM3-transfected cells. […] Cells loaded with Fluo-4 were incubated in 1 mM Ca^2+ solution and treated with 100 μM of Gd^3+ (red) or without blockers (black) for 10 min prior to the addition of 10 mM Ca^2+ to the bath solution as indicated. […] Cells loaded with Fluo-4 were incubated in a nominally Ca^2+-free media and treated without blockers (black) or with 100 μM of Gd^3+ (red) for 10 min prior to the addition of 2 μM TG (Panels C and D, first arrow) or 50 μM CCh (Panels E and F, first arrow), Ca^2+ entry was stimulated by the bath addition of […] (second arrow). Representative traces from one of three independent experiments are shown; each trace is the mean of 12 wells per condition. Physiometric methods were performed as described in Example 10 herein.
(§2) Moreover, physiometric studies have shown that LTRPC3 is a functional Ca^2+ permeable channel (see FIGS. 18 and 19, and Example 7). LTRPC3 function was assessed using a Fluorometric Imaging Plate Reader (FLIPR™) that measures real-time intracellular fluorescence changes. Cells transiently transfected with vector or LTRPC3-HA were loaded with the cytoplasmic Ca^2+ indicator Fluro-4 in a 1 mM Ca^2+ solution. […] The non-transfected cells were indistinguishable from the vector-transfected cells (data not shown). Therefore, LTRPC3 is a constitutively active channel capable of mediating Ca^2+ influx.
The lanthamides, gadolinium (Gd^3+) and lanthanum (La^3+), are noneselective Ca^2+-permeable channel blockers, often used as part of the characterization of overexpressed TRP channels. […] In the presence of 1 mM Ca^2+ in which endogenous SOCs is minimally activated (FIG. 18A), pre-treatment with 100 μM of La^3+and Gd^3+blocked LTRPC3 Ca^2+ currents, stimulated by adding 10 mM Ca^2+, by 67 and 39%, respectively.
Additional experiments were performed to further confirm the Ca^2+ store-depleted activation of LTRPC3 using Gd^3+. The effects of 100 μM Gd^3+ on Ca^2+ permeability were tested in vector- and LTRPC3-transfected cells. […] In contrast, 100 μM Gd^3+ inhibited Ca^2+ entry, induced by adding 10 mM Ca^2+, by 53% in LTRPC3-transfected cells (see FIG. 22B). Gd^3+ reduced fluorescence units in vector-transfected cells from 1470±140 to −58±8 and in LTRPC3-transfected cells from 6000±322 to 2080±199 (n=12). Fluorescence values were measured 150 seconds after adding 10 mM Ca^2+ and percent blockade was calculated as 1 minus FLTRPC3−FVector in the presence of Gd^3+ divided by FLTRPC3−FVector without blocker. The effects of Gd^3+ on LTRPC3-mediated Ca^2+ entry, induced by 10 mM Ca^2+, in the presence of thapsigargin or carbachol was also examined. Cells were incubated in nominally Ca^2+-free medium for thapsigargin and carbachol experiments. Gd^3+ inhibited Ca^2+ entry by 51% after depletion of intracellular stores with thapsigargin (see FIG. 22B). Gd^3+ reduced peak fluorescence after 10 mM Ca^2+ addition in vector-transfected cells from 26444±2410 to 1316±60 and in LTRPC3-transfected cells from 37676±2425 to 6783±250 (see FIGS. 22C and D, respectively; n=12). […]

[2] = system: nigral dopaminergic neurons; details: gel foam implants in the striatum; cited from earlier work
LTRPC3 [3] = biological target: T1, LTRPC3; assay: FLIPR Fluo-4 Ca2+ entry in LTRPC3-transfected HEK 293 cells; format: cell-based; details: 100 μM Gd^3+, nominally Ca^2+-free medium
[4] = system: endogenous Ca^2+ entry pathway in HEK 293 cells; assay: FLIPR Fluo-4 Ca2+ entry in vector-transfected HEK 293 cells (endogenous pathway); format: cell-based; details: 100 μM Gd^3+
Procedure: as §1, §2
To further address the mechanism of LTRPC3-mediated Ca^2+ entry, similar Ca^2+ addition experiments were performed on transfected cells incubated (˜30 min) in a nominally Ca^2+-free solution. Previous studies have shown that lowering extracellular Ca^2+ concentration below physiological levels can deplete intracellular Ca^2+ stores in many cell types including HEK 293 (EMBO J. 17, 4274-4282, (1998)). […]
Additional experiments were performed to further confirm the Ca^2+ store-depleted activation of LTRPC3 using Gd^3+. […] Gd^3+ reduced fluorescence units in vector-transfected cells from 1470±140 to −58±8 and in LTRPC3-transfected cells from 6000±322 to 2080±199 (n=12). Fluorescence values were measured 150 seconds after adding 10 mM Ca^2+ and percent blockade was calculated as 1 minus FLTRPC3−FVector in the presence of Gd^3+ divided by FLTRPC3−FVector without blocker. […] Gd^3+ reduced peak fluorescence after 10 mM Ca^2+ addition in vector-transfected cells from 26444±2410 to 1316±60 and in LTRPC3-transfected cells from 37676±2425 to 6783±250 (see FIGS. 22C and D, respectively; n=12). […] Gd^3+ reduced peak Ca^2+ fluorescence in vector-transfected cells from 9327±466 to 453±15 and in LTRPC3-transfected cells from 14747±988 to 1975±79 (see FIGS. 22E and F, respectively; n=12).

[5] = picogram quantities to the female vomeronasal organ; female recipients; cited from earlier work

T1 sequence (Q9HCF6 with tags, fused parts or gaps isoform Q9HCF6-2 R1670Q limits assumed): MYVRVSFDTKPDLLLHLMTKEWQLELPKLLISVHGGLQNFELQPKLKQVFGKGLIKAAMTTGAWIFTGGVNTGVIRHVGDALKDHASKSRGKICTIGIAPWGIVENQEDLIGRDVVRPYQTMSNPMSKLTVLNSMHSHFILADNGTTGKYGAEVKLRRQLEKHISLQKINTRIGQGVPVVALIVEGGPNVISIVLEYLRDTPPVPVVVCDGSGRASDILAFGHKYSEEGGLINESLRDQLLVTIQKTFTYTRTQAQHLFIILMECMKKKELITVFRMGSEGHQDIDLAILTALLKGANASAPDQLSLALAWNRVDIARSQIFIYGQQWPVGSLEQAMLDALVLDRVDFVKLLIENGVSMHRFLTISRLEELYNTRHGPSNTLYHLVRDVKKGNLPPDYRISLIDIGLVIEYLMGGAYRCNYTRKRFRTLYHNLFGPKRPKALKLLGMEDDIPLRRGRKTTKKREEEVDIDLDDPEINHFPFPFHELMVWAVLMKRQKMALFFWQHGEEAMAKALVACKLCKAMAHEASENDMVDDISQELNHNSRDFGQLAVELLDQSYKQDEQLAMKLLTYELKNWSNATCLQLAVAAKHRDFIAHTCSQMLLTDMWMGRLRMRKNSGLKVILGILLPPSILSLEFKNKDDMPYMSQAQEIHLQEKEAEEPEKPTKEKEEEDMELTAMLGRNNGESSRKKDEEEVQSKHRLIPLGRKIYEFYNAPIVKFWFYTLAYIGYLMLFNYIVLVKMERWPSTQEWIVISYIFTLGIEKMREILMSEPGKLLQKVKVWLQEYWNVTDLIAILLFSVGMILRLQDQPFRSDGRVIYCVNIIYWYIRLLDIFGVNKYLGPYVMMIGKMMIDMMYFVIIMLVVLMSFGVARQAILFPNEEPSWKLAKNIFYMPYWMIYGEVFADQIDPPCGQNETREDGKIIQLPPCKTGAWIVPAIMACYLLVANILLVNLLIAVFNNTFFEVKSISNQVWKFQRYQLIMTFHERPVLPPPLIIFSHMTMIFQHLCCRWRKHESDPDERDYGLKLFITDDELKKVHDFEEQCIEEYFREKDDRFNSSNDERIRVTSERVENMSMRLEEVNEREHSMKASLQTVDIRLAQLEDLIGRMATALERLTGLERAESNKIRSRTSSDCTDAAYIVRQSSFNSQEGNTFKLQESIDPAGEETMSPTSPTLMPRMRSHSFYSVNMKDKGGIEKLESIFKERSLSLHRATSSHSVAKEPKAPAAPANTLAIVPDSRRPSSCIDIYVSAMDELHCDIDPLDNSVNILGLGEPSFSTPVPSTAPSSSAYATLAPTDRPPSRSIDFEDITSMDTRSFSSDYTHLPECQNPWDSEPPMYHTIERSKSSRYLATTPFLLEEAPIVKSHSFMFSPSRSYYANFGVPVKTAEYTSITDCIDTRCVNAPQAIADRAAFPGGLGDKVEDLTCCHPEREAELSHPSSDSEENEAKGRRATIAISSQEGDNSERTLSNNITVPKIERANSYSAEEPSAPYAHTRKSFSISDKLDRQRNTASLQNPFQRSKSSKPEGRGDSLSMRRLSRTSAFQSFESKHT

## C[N+](C)(C)CCOC(N)=O [CCh, Carbachol]
HEK 293 cells; 50 μM CCh, LTRPC3- and vector-transfected cells
  intracellular Ca^2+ response (in words): transient and rapid intracellular Ca^2+ increase

## [La+3] [La^3+, lanthanum]
LTRPC3 [1]
  effect on LTRPC3 mediated Ca^2+ currents / entry (in words): inhibited
  block of LTRPC3 Ca^2+ currents: 67%

## FGF-2: FGF-2 (basic FGF), fibroblast growth factor
[2]
  protection of nigral dopaminergic neurons from the toxicity associated with MPTP exposure: near complete protection

## C/C=C(/C)C(=O)O[C@H]1C(C)=C2[C@H]([C@@H]1OC(=O)CCCCCCC)[C@@](C)(OC(C)=O)C[C@H](OC(=O)CCC)[C@@]1(O)[C@H]2OC(=O)[C@@]1(C)O [thapsigargin]
HEK 293 cells; 2 μM thapsigargin, LTRPC3-HA- and vector-transfected cells
  depletion of Ca^2+ stores (in words): equivalently depleted

## [Gd+3] [Gd^3+, gadolinium]
LTRPC3 [3]; 10 mM Ca^2+ addition
  inhibition of Ca^2+ entry after depletion of intracellular stores with carbachol: 72%
  inhibition of Ca^2+ entry after depletion of intracellular stores with thapsigargin: 51%
LTRPC3 [3]; store depletion with carbachol, n=12
  peak Ca^2+ fluorescence in LTRPC3-transfected cells, carbachol: 1975±79
LTRPC3 [3]; store depletion with thapsigargin, n=12
  peak fluorescence after 10 mM Ca^2+ addition in LTRPC3-transfected cells, thapsigargin: 6783±250
[4]; 1 mM Ca^2+, 150 seconds after adding 10 mM Ca^2+, n=12
  fluorescence units in vector-transfected cells in the presence of Gd^3+: −58±8 fluorescence units
[4]; 1 mM Ca^2+, addition of 10 mM Ca^2+
  effect on minimal Ca^2+ influx in vector-transfected cells (in words): strongly inhibited
[4]; store depletion with carbachol, nominally Ca^2+-free medium, n=12
  peak Ca^2+ fluorescence in vector-transfected cells, carbachol: 453±15
[4]; store depletion with thapsigargin, nominally Ca^2+-free medium, n=12
  peak fluorescence after 10 mM Ca^2+ addition in vector-transfected cells, thapsigargin: 1316±60
LTRPC3 [1]; 100 μM Gd^3+, 1 mM Ca^2+, 150 seconds after adding 10 mM Ca^2+, n=12
  fluorescence units in LTRPC3-transfected cells in the presence of Gd^3+: 2080±199 fluorescence units
LTRPC3 [1]; 100 μM Gd^3+, cells in 1 mM Ca^2+, entry induced by adding 10 mM Ca^2+, 150 seconds, vector signal subtracted
  inhibition of Ca^2+ entry in LTRPC3-transfected cells (percent blockade): 53%
LTRPC3 [1]
  effect on LTRPC3 mediated Ca^2+ currents / entry (in words): partially inhibited
  block of LTRPC3 Ca^2+ currents: 39%

## C[C@@]12C=CC[C@H]1[C@@H]1CCC3=CC(=O)CC[C@]3(C)[C@H]1CC2 [androstadienone]
[5]
  nervousness, tension and other negative feelings: significant reduction
